Source: ChEMBL document CHEMBL2074195, “The role of intestinal P-glycoprotein in the interaction of digoxin and rifampin” (J Clin Invest, 1999)

Molecular target: ATP-dependent translocase ABCB1 (Homo sapiens, UniProt P08183)
Experiment: TP_TRANSPORTER: Western in vivo, quantitative immunohistochemistry
Format: functional, organism-based

Chain of ATP-dependent translocase ABCB1 (P08183 whole entry): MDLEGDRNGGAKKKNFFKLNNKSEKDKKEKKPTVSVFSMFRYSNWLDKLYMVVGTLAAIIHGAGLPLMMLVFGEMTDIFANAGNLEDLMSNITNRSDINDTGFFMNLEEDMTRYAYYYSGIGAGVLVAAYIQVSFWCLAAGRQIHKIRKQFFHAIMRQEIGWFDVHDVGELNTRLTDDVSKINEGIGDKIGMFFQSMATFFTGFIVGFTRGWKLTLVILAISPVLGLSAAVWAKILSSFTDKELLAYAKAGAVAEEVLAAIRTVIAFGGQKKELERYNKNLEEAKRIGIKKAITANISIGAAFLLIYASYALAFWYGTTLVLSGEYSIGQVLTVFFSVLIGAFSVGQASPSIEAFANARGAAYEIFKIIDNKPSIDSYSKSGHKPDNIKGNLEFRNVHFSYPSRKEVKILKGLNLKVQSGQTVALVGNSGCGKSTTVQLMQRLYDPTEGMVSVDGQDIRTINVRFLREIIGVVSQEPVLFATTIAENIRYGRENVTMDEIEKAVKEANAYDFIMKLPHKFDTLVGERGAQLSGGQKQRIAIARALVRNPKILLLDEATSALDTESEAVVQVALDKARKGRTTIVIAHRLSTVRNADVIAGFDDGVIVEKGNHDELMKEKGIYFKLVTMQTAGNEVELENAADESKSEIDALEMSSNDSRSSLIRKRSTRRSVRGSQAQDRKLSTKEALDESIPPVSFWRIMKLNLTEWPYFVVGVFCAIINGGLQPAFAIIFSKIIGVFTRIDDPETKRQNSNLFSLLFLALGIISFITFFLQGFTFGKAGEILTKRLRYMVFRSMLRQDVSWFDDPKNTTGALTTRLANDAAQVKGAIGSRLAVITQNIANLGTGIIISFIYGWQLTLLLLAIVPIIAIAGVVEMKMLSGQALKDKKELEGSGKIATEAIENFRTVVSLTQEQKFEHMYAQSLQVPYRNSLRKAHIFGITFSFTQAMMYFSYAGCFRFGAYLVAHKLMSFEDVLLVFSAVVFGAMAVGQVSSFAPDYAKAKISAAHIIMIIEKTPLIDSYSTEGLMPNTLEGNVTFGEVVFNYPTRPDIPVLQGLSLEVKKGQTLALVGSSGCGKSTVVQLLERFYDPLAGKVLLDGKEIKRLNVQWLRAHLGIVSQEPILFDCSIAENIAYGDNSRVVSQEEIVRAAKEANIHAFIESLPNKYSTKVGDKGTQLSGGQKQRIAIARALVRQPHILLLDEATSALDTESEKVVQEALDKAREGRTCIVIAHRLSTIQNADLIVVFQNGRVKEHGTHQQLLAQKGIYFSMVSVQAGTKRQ

CO[C@H]1/C=C/O[C@@]2(C)Oc3c(C)c(O)c4c(O)c(c(/C=N/N5CCN(C)CC5)c(O)c4c3C2=O)NC(=O)/C(C)=C\C=C\[C@H](C)[C@H](O)[C@@H](C)[C@@H](O)[C@@H](C)[C@H](OC(C)=O)[C@@H]1C [RIFAMPIN]
Activity: inducer [+]
